In this data set the test system is rodent carcinogenicity bioassays, tumor incidence. Nature of the data set: CCRIS carcinogenicity studies. The note with it: Dose: 0, Dose: 0. The essentials:
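NCI-built, expert-reviewed records of carcinogenicity and related test outcomes (mutagenicity, tumor promotion/inhibition) compiled from published and report sources, historical span 1985-2011, not updated.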

The record followed here is PubChem BioAssay AID1259411 (Chemical Carcinogenesis Research Information System (CCRIS), 2018).

Activity calls are given as the source filed them. How the calls were made is not given here.

Consider `c1ccccc1`, for which the carcinogen call (Species: Mouse, Strain/Sex: C57BL/6 (heterozygous Trp53-deficient)/Male, Route: Inhalation, 100, 300 ppm 6 hr/d, 5 d/wk for 26 wks, then no exposure for lifetime, 100, 300 ppm 6 hr/d, 5 d/wk for 26 wks, then no exposure for lifetime, Tumor Site: Type of Lesion: Blood: hematopoietic neoplasms (325, 83,100%). Lymphoid tissue: thymic lymphoma (4, 50, 25%)) was “active; positive (highest dose)”; the carcinogen call (Species: Mouse, Strain/Sex: C57BL/6 (homozygous Trp53-deficient)/Male, Route: Inhalation, 33, 100, 300 ppm 6 hr/d, 5 d/wk for 26 wks, then no exposure for lifetime, 33, 100, 300 ppm 6 hr/d, 5 d/wk for 26 wks, then no exposure for lifetime) was “inactive; negative”; the carcinogen call (Species: Mouse, Strain/Sex: C57BL/6 (wild type)/Male, Route: Inhalation, 33, 100, 300 ppm 6 hr/d, 5 d/wk for 26 wks, then no exposure for lifetime, 33, 100, 300 ppm 6 hr/d, 5 d/wk for 26 wks, then no exposure for lifetime, Tumor Site: Type of Lesion: Blood: Hematopoietic neoplasms (10, 21,16, 56%). Lymphoid tissue: Thymic lymphoma (0, 0,11, 28%)) is “active; positive (highest dose)”; the carcinogen call (Species: Mouse, Strain/Sex: C57BL/6 (wild type)/Male, Route: Inhalation, 100, 300 ppm 6 hr/d, 5 d/wk for 26 wks, then no exposure for lifetime, 100, 300 ppm 6 hr/d, 5 d/wk for 26 wks, then no exposure for lifetime, Tumor Site: Type of Lesion: Blood: hematopoietic neoplasms (8, 25,30%). Lymphoid tissue: thymic lymphoma (0,17, 0%)) is “inactive; negative”; the carcinogen call (Species: RAT, Strain/Sex: F344/FEMALE, Route: GAVAGE, 25, 50, 100 MG/KG IN CORN OIL 5 D/WK FOR 103 WK, 25, 50, 100 MG/KG IN CORN OIL 5 D/WK FOR 103 WK, Tumor Site: Type of Lesion: ORAL CAVITY: SQUAMOUS CELL PAPILLOMA OR CARCINOMA, EAR (ZYMBAL GLAND): CARCINOMA, ADENOMA OR CARCINOMA) is “active; positive”; the carcinogen call (Species: RAT, Strain/Sex: F344/MALE, Route: GAVAGE, 50, 100, 200 MG/KG IN CORN OIL 5 D/WK FOR 103 WK, 50, 100, 200 MG/KG IN CORN OIL 5 D/WK FOR 103 WK, Tumor Site: Type of Lesion: INTEGUMENTARY SYSTEM (SKIN): SQUAMOUS CELL PAPILLOMA, SQUAMOUS CELL CARCINOMA, ORAL CAVITY: SQUAMOUS CELL PAPILLOMA, SQU) is “active; positive”. The carcinogen call (Species: RAT, Strain/Sex: SPRAGUE-DAWLEY/FEMALE, Route: GAVAGE, 50, 250 MG/KG BW IN OLIVE OIL 1/D 4-5 D/WK FOR 52 WK (STUDY DURATION: LIFETIME), 50, 250 MG/KG BW IN OLIVE OIL 1/D 4-5 D/WK FOR 52 WK (STUDY DURATION: LIFETIME), Tumor Site: Type of Lesion: [BRAIN WAS ONLY SITE EVALUATED]) was “inactive; negative”; the carcinogen call (Species: RAT, Strain/Sex: SPRAGUE-DAWLEY/FEMALE, Route: GAVAGE, 50, 250 MG/KG BW, 1/D, 4-5 D/WK FOR 52 WK, 50, 250 MG/KG BW, 1/D, 4-5 D/WK FOR 52 WK, Tumor Site: Type of Lesion: ZYMBAL GLAND: CARCINOMA, MAMMARY GLAND: CARCINOMA) is “active; positive”; the carcinogen call (Species: RAT, Strain/Sex: SPRAGUE-DAWLEY/MALE,FEMALE, Route: GAVAGE, 500 MG/KG BW, 1/WK, Tumor Site: Type of Lesion: ORAL CAVITY: SQUAMOUS CELL CARCINOMA, ZYMBAL GLAND: CARCINOMA) is “active; positive”; the carcinogen call (Species: RAT, Strain/Sex: SPRAGUE-DAWLEY/MALE, Route: GAVAGE, 50, 250 MG/KG BW IN OLIVE OIL 1/D 4-5 D/WK FOR 52 WK (STUDY DURATION: LIFETIME), 50, 250 MG/KG BW IN OLIVE OIL 1/D 4-5 D/WK FOR 52 WK (STUDY DURATION: LIFETIME), Tumor Site: Type of Lesion: [BRAIN WAS ONLY SITE EVALUATED]) was “inactive; negative”; the carcinogen call (Species: RAT, Strain/Sex: SPRAGUE-DAWLEY/MALE, Route: GAVAGE, 50, 250 MG/KG BW, 1/D, 4-5 D/WK FOR 52 WK, 50, 250 MG/KG BW, 1/D, 4-5 D/WK FOR 52 WK, Tumor Site: Type of Lesion: HEMATOPOIETIC SYSTEM (LEUKEMIA)) is “active; positive”; the carcinogen call (Species: RAT, Strain/Sex: STRAIN-CD/FEMALE, Route: INHALATION, 200 PPM 4 HR/D 5 D/WK FOR 7 WK THEN 7 HR/D FOR 12 WK THEN 300 PPM 7 HR/D 5 D/WK FOR 85 WK (STUDY DURATION: LIFESPAN), Tumor Site: Type of Lesion: MAMMARY GLAND: ADENOCARCINOMA, ORAL CAVITY: CARCINOMA, ZYMBAL GLAND: CARCINOMA, Tumor Site: Type of Lesion: MAMMARY GLAND: ADENOCARCINOMA, ORAL CAVITY: CARCINOMA, ZYMBAL GLAND: CARCINOMA) was “active; positive”. Further, the carcinogen call reads like this: (Species: RAT, Strain/Sex: STRAIN-CD/FEMALE, Route: INHALATION, 200 PPM 4 HR/D FOR 7 WK THEN 7 HR/D FOR 12 WK THEN 300 PPM 7 HR/D 5 D/WK FOR 85 WK TO RATS ALSO EXPOSED IN UTERO (STU, Tumor Site: Type of Lesion: ZYMBAL GLAND: CARCINOMA, ORAL CAVITY: CARCINOMA, NASAL CAVITY: CARCINOMA, MAMMARY GLAND: ADENOCARCINOMA, LIVER: HEPATOMA, Tumor Site: Type of Lesion: ZYMBAL GLAND: CARCINOMA, ORAL CAVITY: CARCINOMA, NASAL CAVITY: CARCINOMA, MAMMARY GLAND: ADENOCARCINOMA, LIVER: HEPATOMA) “active; positive”; (Species: RAT, Strain/Sex: STRAIN-CD/FEMALE, Route: INTRAGASTRIC, 50, 250 MG/KG IN OLIVE OIL 1/D 4-5 D/WK FOR 52 WK (STUDY DURATION: LIFESPAN), 50, 250 MG/KG IN OLIVE OIL 1/D 4-5 D/WK FOR 52 WK (STUDY DURATION: LIFESPAN), Tumor Site: Type of Lesion: ZYMBAL GLAND: CARCINOMA) “active; positive”; (Species: RAT, Strain/Sex: STRAIN-CD/FEMALE, Route: INTRAGASTRIC, 500 MG/KG IN OLIVE OIL 1/D 4-5 D/WK FOR 104 WK (STUDY DURATION: 104 WK)) “inactive; negative”; (Species: RAT, Strain/Sex: STRAIN-CD/FEMALE, Route: INTRAGASTRIC, 500 MG/KG IN OLIVE OIL 1/D 4-5 D/WK FOR 104 WK (STUDY DURATION: LIFESPAN), Tumor Site: Type of Lesion: ZYMBAL GLAND: CARCINOMA, LIVER: ANGIOSARCOMA, ORAL CAVITY: CARCINOMA, HEMOLYMPHORETICULAR: TUMOR, Tumor Site: Type of Lesion: ZYMBAL GLAND: CARCINOMA, LIVER: ANGIOSARCOMA, ORAL CAVITY: CARCINOMA, HEMOLYMPHORETICULAR: TUMOR) “active; positive”; (Species: RAT, Strain/Sex: STRAIN-CD/MALE, Route: INHALATION, 200 PPM 4 HR/D 5 D/WK FOR 7 WK THEN 7 HR/D FOR 12 WK THEN 300 PPM 7 HR/D 5 D/WK FOR 85 WK TO RATS ALSO EXPOSED IN UTE, Tumor Site: Type of Lesion: ZYMBAL GLAND: CARCINOMA) “active; positive”; (Species: RAT, Strain/Sex: STRAIN-CD/MALE, Route: INTRAGASTRIC, 50, 250 MG/KG IN OLIVE OIL 1/D 4-5 D/WK FOR 52 WK (STUDY DURATION: LIFESPAN), 50, 250 MG/KG IN OLIVE OIL 1/D 4-5 D/WK FOR 52 WK (STUDY DURATION: LIFESPAN), Tumor Site: Type of Lesion: HEMOLYMPHORETICULAR SYSTEM: TUMOR) “active; positive”. The carcinogen call (Species: RAT, Strain/Sex: STRAIN-CD/MALE, Route: INTRAGASTRIC, 500 MG/KG IN OLIVE OIL 1/D 4-5 D/WK FOR 104 WK (STUDY DURATION: 104 WK)) was “inactive; negative”; the carcinogen call (Species: RAT, Strain/Sex: STRAIN-CD/MALE, Route: INTRAGASTRIC, 500 MG/KG IN OLIVE OIL 1/D 4-5 D/WK FOR 104 WK (STUDY DURATION: LIFESPAN), Tumor Site: Type of Lesion: ZYMBAL GLAND: CARCINOMA, ORAL CAVITY: CARCINOMA, NASAL CAVITY: CARCINOMA, SKIN: CARCINOMA, Tumor Site: Type of Lesion: ZYMBAL GLAND: CARCINOMA, ORAL CAVITY: CARCINOMA, NASAL CAVITY: CARCINOMA, SKIN: CARCINOMA) is “active; positive”; the carcinogen call (Species: RAT, Strain/Sex: WISTAR/FEMALE, Route: GAVAGE, 500 MG/KG IN OLIVE OIL 1/D FOR 4 TO 5 D/WK FOR 104 WK (STUDY DURATION: LIFETIME), Tumor Site: Type of Lesion: ZYMBAL GLAND: CARCINOMA, ORAL CAVITY: CARCINOMA, NASAL CAVITY: CARCINOMA, Tumor Site: Type of Lesion: ZYMBAL GLAND: CARCINOMA, ORAL CAVITY: CARCINOMA, NASAL CAVITY: CARCINOMA) was “active; positive”; the carcinogen call (Species: RAT, Strain/Sex: WISTAR/FEMALE, Route: INTRAGASTRIC, 500 MG/KG BW IN OLIVE OIL 1/D 4-5 D/WK FOR 104 WK (STUDY DURATION: LIFESPAN), Tumor Site: Type of Lesion: ZYMBAL GLAND: CARCINOMA, MAMMARY GLAND: ADENOCARCINOMA, HEMOLYMPHORETICULAR SYSTEM: TUMOR, Tumor Site: Type of Lesion: ZYMBAL GLAND: CARCINOMA, MAMMARY GLAND: ADENOCARCINOMA, HEMOLYMPHORETICULAR SYSTEM: TUMOR) is “active; positive”; the carcinogen call (Species: RAT, Strain/Sex: WISTAR/MALE, Route: GAVAGE, 500 MG/KG IN OLIVE OIL 1/D FOR 4 TO 5 D/WK FOR 104 WK (STUDY DURATION: LIFETIME), Tumor Site: Type of Lesion: ZYMBAL GLAND: CARCINOMA, ORAL CAVITY: CARCINOMA, NASAL CAVITY: CARCINOMA, Tumor Site: Type of Lesion: ZYMBAL GLAND: CARCINOMA, ORAL CAVITY: CARCINOMA, NASAL CAVITY: CARCINOMA) was “active; positive”; the carcinogen call (Species: RAT, Strain/Sex: WISTAR/MALE, Route: INTRAGASTRIC, 500 MG/KG BW IN OLIVE OIL 1/D 4-5 D/WK FOR 104 WK (STUDY DURATION: LIFESPAN), Tumor Site: Type of Lesion: ZYMBAL GLAND: CARCINOMA) was “active; positive”.
